In assay [1] the test system is Acinetobacter baumannii clinical isolates. Put plainly: Time-kill studies. Format: cell-based. The procedure: Time-kill experiments were performed by JMI Laboratories (North Liberty, IA, USA) as described in chapter 5.14 of the Clinical Microbiology Procedures Handbook[32] and the CLSI M26-A[33] document. Two Acinetobacter baumannii clinical isolates (JMI colistin-sensitive strain #1088100 and colistin-resistant strain #1001007) were used for this study. MIC values that were determined in Difco Muller Hinton Broth (BD) for OMN6 and colistin as described above, were used as the baseline values during time-kill testing. In the time-kill experiments, OMN6 and colistin were tested in Difco Muller Hinton Broth. The time-kill cultures were sampled at 0, 2, 4, 8, and 24 h after compound addition. The number of CFU/mL in each culture was measured by plating 100 μL of serial dilutions onto blood agar plates. Colonies were counted after 48 h of growth at 35 °C. Time-kill curves were generated by plotting CFU/mL as log10 values over time. The limit of detection was 10 CFU/mL. Bactericidal activity was defined as a ≥ 99.9% reduction (i.e., a ≥ 3 log10 decrease) in the number of input bacterial cells at any arbitrary timepoint.

A further assay relates to Acinetobacter baumannii. The settings on record: for MIC: CLSI broth microdilution, Muller-Hinton broth, 18–24 h, 35 ± 2 °C. The procedure:
(§1) This experiment was conducted by Omnix Medical, by JMI Laboratories (North Liberty, IA, USA) and by Aptuit (Verona) S.r.l. (Italy), an Evotec Company. All studies were performed according to Clinical and Laboratory Standards Institute guidelines[30] for the application of the broth microdilution method. Reference strains from American Type Culture Collection (ATCC) and clinical isolates from the Evotec EvostrAIn and the JMI Laboratories SENTRY surveillance program culture collections (Acinetobacter baumannii: ACC 00445, ACC 00527, ACC 00535, ATCC 17978, ATCC 19606, ATCC BAA-1793, ACC 01076, ACC 01077, NCTC 13420, JMI #1088100 and JMI #1001007; Klebsiella pneumoniae: ATCC 43816 and ATCC BAA-1705; Escherichia coli: ACC 01001 and ATCC 25922; Staphylococcus aureus: ATCC 29213, ATCC BAA-44 and ATCC 33591; Bacillus cereus: ATCC 14579; Enterococcus faecalis: ATCC 29212; Enterococcus faecium: ATCC BAA-2319) were used. The antimicrobial activity of OMN6 was determined by 12 serial two-fold dilutions in water of the 100-fold highest compound solution; 1 µL of each well was transferred into 96 microtiter plates (final concentration: 256–0.12 µg/mL). In most strains, same procedure was used to determine the colistin antimicrobial activity (final concentration: 32–0.015 µg/mL). Bacterial strains were sub-cultured on the agar plates and incubated for 18–24 h at 35 ± 2 °C in ambient air. Following incubation, the inoculum was prepared from isolated colonies and adjusted to 0.5 McFarland turbidity standard (1 to 2 × 10^8 colony-forming units/mL) in 0.9% saline. Bacterial suspension was then diluted 1:200 in Muller-Hinton broth (from BD; Becton, Dickinson and Company, Franklin Lakes, NJ, USA) and within 15 min 100 µL/well were dispensed. Growth-control wells and sterility-check wells (uninoculated well) were present in each plate. Plates were incubated for 18–24 h at 35 ± 2 °C in ambient air. […] The antimicrobial activity to other antibiotics on most bacterial strains was determined by Evotec using the antimicrobial sensitive test from the VITEK 2 automated microbiology system (bioMérieux SA, Marcy l'Etoile, France; data presented in Table S1), or by ATCC according to CLSI (Clinical and Laboratory Standards Institute) guidelines[30]
(In general: In broth dilution the organism is exposed to a series of concentrations in liquid medium.)

For a further assay, the system named is Bacillus cereus. Particulars: B. cereus ATCC 14579; CLSI broth microdilution, Muller-Hinton broth, 18–24 h, 35 ± 2 °C. How it is done: as §1
The next assay relates to Enterococcus faecalis. Particulars: E. faecalis ATCC 29212 (Van-S); CLSI broth microdilution, Muller-Hinton broth, 18–24 h, 35 ± 2 °C. The procedure:
as §1

For the next assay, the system named is Enterococcus faecium. Particulars: E. faecium ATCC BAA-2319 (MDR/Van-R); CLSI broth microdilution, Muller-Hinton broth, 18–24 h, 35 ± 2 °C. The procedure: as §1
Another assay concerns Escherichia coli. The settings on record: CLSI broth microdilution, Muller-Hinton broth, 18–24 h, 35 ± 2 °C. How it is done: as §1
A further assay relates to Gram-negative bacteria. Particulars: summary of Table 1, regardless of resistance profile. How it is done:
as §1

The next assay concerns Klebsiella pneumoniae. The settings on record: CLSI broth microdilution, Muller-Hinton broth, 18–24 h, 35 ± 2 °C. How it is done:
as §1

For a further assay, the system named is Staphylococcus aureus. Particulars: CLSI broth microdilution, Muller-Hinton broth, 18–24 h, 35 ± 2 °C. The procedure: as §1

Values after ≈ are worked out from the molar mass of the structure shown. Read-outs that look alike come from different tables or passages of the source. Bridge positions count the residues as written; N and C are the ends. Peptide text beside a SMILES is read from it. Bounds are passed on as bounds.

Take `CC[C@H](C)[C@@H]1NC(=O)CNC(=O)[C@H](CC(=O)O)NC(=O)[C@H](CCCNC(=N)N)NC(=O)[C@H]([C@@H](C)CC)NC(=O)[C@H](CC(N)=O)NC(=O)[C@H](CCC(N)=O)NC(=O)CNC(=O)[C@H](C(C)C)NC(=O)[C@H](CCCCN)NC(=O)[C@H](CCC(=O)O)NC(=O)[C@H]([C@@H](C)CC)NC(=O)[C@H](CCCCN)NC(=O)[C@H](CCCCN)NC(=O)[C@H](Cc2ccccc2)NC(=O)[C@H](CC(C)C)NC(=O)[C@H](CCCCN)NC(=O)[C@H](Cc2c[nH]c3ccccc23)NC(=O)[C@H](CCCCN)NC(=O)[C@@H](NC(=O)[C@@H](N)CCSC)CSSC[C@@H](C(N)=O)NC(=O)[C@H](CCCCN)NC(=O)[C@H](C)NC(=O)[C@H]([C@@H](C)CC)NC(=O)[C@H](CCC(N)=O)NC(=O)[C@H]([C@@H](C)O)NC(=O)[C@H](C)NC(=O)[C@H](CCC(N)=O)NC(=O)CNC(=O)[C@H](C(C)C)NC(=O)[C@H](C(C)C)NC(=O)[C@H](C)NC(=O)[C@H](C(C)C)NC(=O)[C@H](C)NC(=O)[C@@H]2CCCN2C(=O)CNC(=O)[C@H](C)NC(=O)[C@H](CCCCN)NC(=O)[C@H]([C@@H](C)CC)NC1=O` [OMN6] (H-MCKWKLFKKIEKVGQNIRDGIIKAGPAVAVVGQATQIAKC-NH2; disulfide 2-40; N-terminus assumed): in [1] (colistin-resistant A. baumannii JMI #1001007, similar timeframe and concentrations as on the colistin-sensitive strain), the “Bactericidal pattern on colistin-resistant strain” value is listed as “retained its bactericidal pattern”. Moreover, the “Concentrations with bactericidal effect after 2 h of incubation” value in assay [1] (colistin-sensitive A. baumannii JMI #1088100, Difco Muller Hinton Broth, bactericidal = ≥ 3 log10 decrease) was above 8 µg/mL. In addition, the “Re-growth during the 24 h timeframe” value in assay [1] (colistin-sensitive A. baumannii JMI #1088100, Difco Muller Hinton Broth, sampled 0, 2, 4, 8, 24 h) is reported as “No re-growth”. For the same molecule, the MIC – broadly, the lowest concentration that inhibits growth of the organism – against Acinetobacter baumannii (A. baumannii ACC 00445 (MDR/Col-S)) is 4 µg/mL (≈ 0.922 µM); against Acinetobacter baumannii (A. baumannii ACC 00527 (MDR/Col-R)), 4 µg/mL (≈ 0.922 µM); against Acinetobacter baumannii (A. baumannii ACC 00535 (MDR/Col-S)), 4 µg/mL (≈ 0.922 µM); in the assay on Acinetobacter baumannii (A. baumannii ACC 01076 (MDR/Col-R)) it was 8 µg/mL (≈ 1.84 µM); against Acinetobacter baumannii (A. baumannii ACC 01077 (MDR/Col-R)) it was 4 µg/mL (≈ 0.922 µM); against Acinetobacter baumannii (A. baumannii ATCC 17978 (S)), 8 µg/mL (≈ 1.84 µM). The minimal inhibitory concentration (MIC) with Acinetobacter baumannii (A. baumannii ATCC 19606 (S)) is given as 8 µg/mL (≈ 1.84 µM); in the assay on Acinetobacter baumannii (A. baumannii ATCC BAA-1793 (MDR)), 8 µg/mL (≈ 1.84 µM); against Bacillus cereus, above 256 µg/mL; against Enterococcus faecalis, above 256 µg/mL; against Enterococcus faecium, above 256 µg/mL; with Escherichia coli (E. coli ACC 01001 (mcr-1)) it was 32 µg/mL (≈ 7.37 µM). The MIC is 16 µg/mL (≈ 3.69 µM) in the assay on Escherichia coli (E. coli ATCC 25922 (S)); 16 µg/mL (≈ 3.69 µM) against Klebsiella pneumoniae (K. pneumoniae ATCC 43816 (S)); 16 µg/mL (≈ 3.69 µM) in the assay on Klebsiella pneumoniae (K. pneumoniae ATCC BAA-1705 (MDR)); above 256 µg/mL in the assay with Staphylococcus aureus (S. aureus ATCC 29213 (MSSA)); above 256 µg/mL in the assay with Staphylococcus aureus (S. aureus ATCC 33591 (MRSA)); above 256 µg/mL with Staphylococcus aureus (S. aureus ATCC BAA-44 (MDR/MRSA)). Besides, the “MICs of the A. baumannii strains” value against Acinetobacter baumannii (summary of Table 1, sensitive and multidrug resistant strains) lay within 4 to 8 µg/mL. Moreover, the “MIC on Gram-negative bacteria (all tested strains)” value in the assay on Gram-negative bacteria is at most 32 µg/mL.

The values above are taken from publication PMC7988117, “OMN6 a novel bioengineered peptide for the treatment of multidrug resistant Gram negative bacteria” (Scientific Reports, 2021).
